Data published in US8916541B2, “Synergistic combination of honokiol and modified citrus pectin in cancer therapy” (Better Health Publishing, Inc., priority 2011, dated 2014).

How the values were obtained:
[1] = system: liver cancer BEL-7404 cell line cells; experiment: MTT cell viability assay
[2] = system: T-helper/inducer lymphocyte subset (CD3/CD4); experiment: FastImmune CD69 T-helper/inducer lymphocyte activation in whole blood cultures; assay type: cell-based, human; settings: 10 ng/ml
From the text: (§1) In vitro lymphocyte activation represents a standard approach for evaluating cell-mediated responses to a variety of stimuli including immunostimulatory botanical extracts. The FastImmune assay system monitors the expression of the early activation marker CD69 in whole blood after stimulation with extracts.
(§2) T-lymphocyte subsets can be identified and quantified by using fluorochrome-labeled antibody combinations such as CD4/CD69/CD3 and CD8/CD69/CD3. CD4 antigen is expressed on the T-helper/inducer lymphocyte subset (CD3/CD4). CD8 antigen is expressed on the human suppressor/cytotoxic T-lymphocyte subset (CD3/CD8). Once activated both CD4 and CD8 positive T cells express CD69.
(§3) Blood samples were collected from healthy volunteers and 250 μl blood sample were incubated in 48-well plates with increasing concentrations of compound along with appropriate positive controls (recommended by Becton Dickinson Biosciences, CA) for each subset. CD2/CD2R and Phorbol ester (PMA) were used as controls for T-lymphocyte activation studies. […] T2CA, a characterized polysaccharide complex evaluated in these assays was also used as a control. The blood cultures were incubated at 37° C. in a CO2 incubator for 24 h. […] The percentage of activated T-cell subsets, B-cells and NK-cells and the percentage increase over untreated control were calculated and plotted against compound concentrations.

[3] = system: suppressor/cytotoxic T-lymphocyte subset (CD3/CD8); experiment: FastImmune CD69 T-cytotoxic/suppressor lymphocyte activation in whole blood cultures; assay type: cell-based, human; settings: 10 ng/ml
From the text: as §1, §2, §3

[4] = increase over untreated control

Compound	cell growth inhibition ([1]; 10 μg/ml of HNK, 72 hour treatment, BEL-7404 cells) [%]	inhibition ([1]; 5 mcg/ml of HNK alone, BEL-7404 cells, FIG. 1)	cytotoxicity on BEL-7404 cells (in words) ([1]; 72 hour treatment, single agents)	T-helper/inducer Lymphocyte Activation, Activation (%) ([2]; 24 h blood culture)	T-helper/inducer Lymphocyte Activation, % Increase [2, 4] [%]	T-cytotoxic/suppressor Lymphocyte Activation, Activation (%) ([3]; 24 h blood culture)	T-cytotoxic/suppressor Lymphocyte Activation, % Increase [3, 4] [%]
C=CCc1ccc(O)c(-c2ccc(O)c(CC=C)c2)c1 [HNK, honokiol]	68.7	around 25%	cytotoxicity on BEL-7404 cells in a dose dependent manner				
CCCCCCCCCCCCCC(=O)O[C@@H]1[C@@H](C)[C@@]2(O)[C@@H](C=C(CO)C[C@]3(O)C(=O)C(C)=C[C@@H]23)[C@@H]2C(C)(C)[C@]12OC(C)=O [PMA, Phorbol ester]				5.93	120.86	5.68	54.45
